Test results taken from ChEMBL document CHEMBL1201862, “PubChem BioAssay data set” (2004).
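Briefly, cells in 96-well plates were exposed to five compound concentrations for 48 h, and endpoints were estimated by linear interpolation. GI50 is the concentration that inhibits growth by half.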 Activity calls are given as the source filed them. Rule as the data show it: active = GI50 up to about 1.1 µM and inactive = higher.

How the values were obtained:
Assay in all cases: NCI-60 cell line screen, 48 h
786-0 = system: 786-0
A498 = system: A498
A549 = system: A549
ACHN = system: ACHN
CAKI-1 = system: CAKI-1
CCRF-CEM = system: CCRF-CEM
COLO 205 = system: COLO 205
DLD-1 = system: DLD-1
DMS-273 = system: DMS-273
EKVX = system: EKVX
HCC 2998 = system: HCC 2998
HCT-15 = system: HCT-15
HL-60 = system: HL-60
HOP-18 = system: HOP-18
HOP-62 = system: HOP-62
HOP-92 = system: HOP-92
HT-29 = system: HT-29
IGROV-1 = system: IGROV-1
K562 = system: K562
KM-20L2 = system: KM-20L2
KM12 = system: KM12
LOX IMVI = system: LOX IMVI
LXFL 529 = system: LXFL 529
M14 = system: M14
M19-MEL = system: M19-MEL
MOLT-4 = system: MOLT-4
Malme-3M = system: Malme-3M
NCI-H226 = system: NCI-H226
NCI-H23 = system: NCI-H23
NCI-H460 = system: NCI-H460
NCI-H522 = system: NCI-H522
OVCAR-3 = system: OVCAR-3
OVCAR-4 = system: OVCAR-4
OVCAR-5 = system: OVCAR-5
OVCAR-8 = system: OVCAR-8
RPMI-8226 = system: RPMI-8226
SF-268 = system: SF-268
SF-295 = system: SF-295
SF-539 = system: SF-539
SK-MEL-28 = system: SK-MEL-28
SK-MEL-2 = system: SK-MEL-2
SK-MEL-5 = system: SK-MEL-5
SK-OV-3 = system: SK-OV-3
SN12C = system: SN12C
SNB-19 = system: SNB-19
SNB-75 = system: SNB-75
SNB-78 = system: SNB-78
SW-620 = system: SW-620
TK-10 = system: TK-10
U-251 = system: U-251
UACC-257 = system: UACC-257
UACC-62 = system: UACC-62
UO-31 = system: UO-31
XF498 = system: XF498
DMS-114 = system: DMS-114
HCT-116 = system: HCT-116
RXF 393 = system: RXF 393
SR = system: SR

Compound: Nc1c(C(=O)NC23CC4CC(CC(C4)C2)C3)[n+]([O-])c2ccccc2[n+]1[O-]
- GI50 (786-0): > 100 µM (inactive)
- GI50 (A498): > 100 µM (inactive)
- GI50 (A549): > 100 µM (inactive)
- GI50 (ACHN): > 100 µM (inactive)
- GI50 (CAKI-1): > 100 µM (inactive)
- GI50 (CCRF-CEM): > 100 µM (inactive)
- GI50 (COLO 205): > 100 µM (inactive)
- GI50 (DLD-1): > 100 µM (inactive)
- GI50 (DMS-273): > 100 µM (inactive)
- GI50 (EKVX): > 100 µM (inactive)
- GI50 (HCC 2998): > 100 µM (inactive)
- GI50 (HCT-15): > 100 µM
- GI50 (HL-60): > 100 µM (inactive)
- GI50 (HOP-18): > 100 µM (inactive)
- GI50 (HOP-62): > 100 µM (inactive)
- GI50 (HOP-92): 90.4 µM (inactive)
- GI50 (HT-29): > 100 µM (inactive)
- GI50 (IGROV-1): > 100 µM (inactive)
- GI50 (K562): > 100 µM (inactive)
- GI50 (KM-20L2): > 100 µM (inactive)
- GI50 (KM12): > 100 µM (inactive)
- GI50 (LOX IMVI): > 100 µM (inactive)
- GI50 (LXFL 529): > 100 µM (inactive)
- GI50 (M14): > 100 µM (inactive)
- GI50 (M19-MEL): > 100 µM (inactive)
- GI50 (MOLT-4): > 100 µM (inactive)
- GI50 (Malme-3M): > 100 µM (inactive)
- GI50 (NCI-H226): > 100 µM (inactive)
- GI50 (NCI-H23): > 100 µM (inactive)
- GI50 (NCI-H460): > 100 µM (inactive)
- GI50 (NCI-H522): > 100 µM (inactive)
- GI50 (OVCAR-3): > 100 µM (inactive)
- GI50 (OVCAR-4): > 100 µM (inactive)
- GI50 (OVCAR-5): > 100 µM (inactive)
- GI50 (OVCAR-8): > 100 µM (inactive)
- GI50 (RPMI-8226): > 100 µM (inactive)
- GI50 (SF-268): > 100 µM (inactive)
- GI50 (SF-295): > 100 µM (inactive)
- GI50 (SF-539): > 100 µM (inactive)
- GI50 (SK-MEL-28): > 100 µM (inactive)
- GI50 (SK-MEL-2): > 100 µM (inactive)
- GI50 (SK-MEL-5): > 100 µM (inactive)
- GI50 (SK-OV-3): > 100 µM (inactive)
- GI50 (SN12C): > 100 µM (inactive)
- GI50 (SNB-19): > 100 µM (inactive)
- GI50 (SNB-75): > 100 µM (inactive)
- GI50 (SNB-78): > 100 µM (inactive)
- GI50 (SW-620): > 100 µM (inactive)
- GI50 (TK-10): > 100 µM (inactive)
- GI50 (U-251): > 100 µM (inactive)
- GI50 (UACC-257): > 100 µM (inactive)
- GI50 (UACC-62): > 100 µM (inactive)
- GI50 (UO-31): > 100 µM (inactive)
- GI50 (XF498): > 100 µM (inactive)

Compound: O=C(/C=C(\O)C(=O)O)/C=C(\O)c1ccccc1Cl
- GI50 (786-0): > 100 µM (inactive)
- GI50 (A498): > 100 µM (inactive)
- GI50 (A549): > 100 µM (inactive)
- GI50 (ACHN): > 100 µM (inactive)
- GI50 (CAKI-1): > 100 µM (inactive)
- GI50 (CCRF-CEM): > 100 µM (inactive)
- GI50 (COLO 205): > 100 µM (inactive)
- GI50 (DLD-1): > 100 µM (inactive)
- GI50 (DMS-114): > 100 µM (inactive)
- GI50 (DMS-273): > 100 µM (inactive)
- GI50 (EKVX): > 100 µM (inactive)
- GI50 (HCC 2998): > 100 µM (inactive)
- GI50 (HCT-116): > 100 µM (inactive)
- GI50 (HCT-15): > 100 µM
- GI50 (HL-60): > 100 µM (inactive)
- GI50 (HOP-18): > 100 µM (inactive)
- GI50 (HOP-62): > 100 µM (inactive)
- GI50 (HOP-92): > 100 µM (inactive)
- GI50 (HT-29): > 100 µM (inactive)
- GI50 (IGROV-1): > 100 µM (inactive)
- GI50 (K562): > 100 µM (inactive)
- GI50 (KM-20L2): > 100 µM (inactive)
- GI50 (KM12): > 100 µM (inactive)
- GI50 (LOX IMVI): > 100 µM (inactive)
- GI50 (LXFL 529): > 100 µM (inactive)
- GI50 (M14): > 100 µM (inactive)
- GI50 (MOLT-4): > 100 µM (inactive)
- GI50 (Malme-3M): > 100 µM (inactive)
- GI50 (NCI-H226): > 100 µM (inactive)
- GI50 (NCI-H23): > 100 µM (inactive)
- GI50 (NCI-H460): > 100 µM (inactive)
- GI50 (NCI-H522): > 100 µM (inactive)
- GI50 (OVCAR-3): > 100 µM (inactive)
- GI50 (OVCAR-4): > 100 µM (inactive)
- GI50 (OVCAR-5): > 100 µM (inactive)
- GI50 (OVCAR-8): > 100 µM (inactive)
- GI50 (RPMI-8226): > 100 µM (inactive)
- GI50 (RXF 393): > 100 µM (inactive)
- GI50 (SF-268): > 100 µM (inactive)
- GI50 (SF-295): > 100 µM (inactive)
- GI50 (SF-539): > 100 µM (inactive)
- GI50 (SK-MEL-28): > 100 µM (inactive)
- GI50 (SK-MEL-2): > 100 µM (inactive)
- GI50 (SK-MEL-5): > 100 µM (inactive)
- GI50 (SK-OV-3): > 100 µM (inactive)
- GI50 (SN12C): > 100 µM (inactive)
- GI50 (SNB-19): > 100 µM (inactive)
- GI50 (SNB-75): > 79.8 µM (inactive)
- GI50 (SR): > 100 µM (inactive)
- GI50 (SW-620): > 100 µM (inactive)
- GI50 (TK-10): > 100 µM (inactive)
- GI50 (U-251): > 100 µM (inactive)
- GI50 (UACC-257): > 100 µM (inactive)
- GI50 (UACC-62): > 100 µM (inactive)
- GI50 (UO-31): > 100 µM (inactive)
- GI50 (XF498): > 100 µM (inactive)

Compound: CC(=O)O[C@H]1C(=O)[C@@]2(C)C(C(OC(=O)c3ccccc3)[C@]3(O)CC(OC(=O)C(O)C(NC(=O)c4ccc(C(F)(F)F)cc4)c4ccccc4)C(C)=C1C3(C)C)[C@]1(OC(C)=O)CO[C@@H]1C[C@@H]2O (some centres undefined)
- GI50 (786-0): 0.64 µM (active)
- GI50 (A498): 1.19 µM (inactive)
- GI50 (A549): 0.218 µM (active)
- GI50 (ACHN): 1.9 µM (inactive)
- GI50 (CAKI-1): 0.076 µM (active)
- GI50 (CCRF-CEM): 0.175 µM (active)
- GI50 (COLO 205): 0.0706 µM (active)
- GI50 (DLD-1): 0.231 µM (active)
- GI50 (DMS-114): 0.0226 µM (active)
- GI50 (DMS-273): 0.0431 µM (active)
- GI50 (HCC 2998): 0.101 µM (active)
- GI50 (HCT-116): 0.05 µM (active)
- GI50 (HCT-15): 4.97 µM
- GI50 (HL-60): 0.0951 µM (active)
- GI50 (HOP-18): 0.836 µM (active)
- GI50 (HOP-62): 0.0989 µM (active)
- GI50 (HOP-92): 2.13 µM (inactive)
- GI50 (HT-29): 0.0565 µM (active)
- GI50 (IGROV-1): 0.183 µM (active)
- GI50 (K562): 0.108 µM (active)
- GI50 (KM-20L2): 0.0767 µM (active)
- GI50 (KM12): 0.0611 µM (active)
- GI50 (LOX IMVI): 0.156 µM (active)
- GI50 (M14): 0.0682 µM (active)
- GI50 (M19-MEL): 0.0824 µM (active)
- GI50 (MOLT-4): 0.0324 µM (active)
- GI50 (Malme-3M): 0.109 µM (active)
- GI50 (NCI-H226): 0.0977 µM (active)
- GI50 (NCI-H23): 0.136 µM (active)
- GI50 (NCI-H460): 0.103 µM (active)
- GI50 (NCI-H522): 0.0755 µM (active)
- GI50 (OVCAR-3): 0.0757 µM (active)
- GI50 (OVCAR-4): 8.77 µM (inactive)
- GI50 (OVCAR-5): 0.158 µM (active)
- GI50 (OVCAR-8): 0.161 µM (active)
- GI50 (RPMI-8226): 0.0628 µM (active)
- GI50 (SF-268): 0.157 µM (active)
- GI50 (SF-295): 0.239 µM (active)
- GI50 (SF-539): 0.166 µM (active)
- GI50 (SK-MEL-28): 0.128 µM (active)
- GI50 (SK-MEL-2): 0.0914 µM (active)
- GI50 (SK-MEL-5): 0.0942 µM (active)
- GI50 (SK-OV-3): 0.129 µM (active)
- GI50 (SN12C): 0.159 µM (active)
- GI50 (SNB-19): 0.861 µM (active)
- GI50 (SNB-75): 0.00375 µM (active)
- GI50 (SNB-78): 0.453 µM (active)
- GI50 (SR): 0.0264 µM (active)
- GI50 (SW-620): 0.0552 µM (active)
- GI50 (TK-10): 1.95 µM (inactive)
- GI50 (U-251): 0.156 µM (active)
- GI50 (UACC-257): 0.236 µM (active)
- GI50 (UACC-62): 0.0723 µM (active)
- GI50 (XF498): 0.681 µM (active)
